Reference: paper PMC4193772, “Dual Effects of Alpha-Arbutin on Monophenolase and Diphenolase Activities of Mushroom Tyrosinase” (PLoS ONE, 2014)

Columns and labels:
[1] = system: T1, mushroom tyrosinase; test: dopachrome formation at […] nm, diphenolase activity, Lineweaver-Burk; format: biochemical; settings: no α-arbutin, 6.67 µg/mL enzyme, 50 mM phosphate pH 6.8, 30°C, air-saturated; apparent Km
T1 construct: gene PPO3

[2] = biological target: T1, mushroom tyrosinase; test: dopachrome formation at […] nm, monophenolase activity; format: biochemical; settings: 0.5 mM L-tyrosine, 20 µg/mL enzyme, 50 mM phosphate pH 6.8, 30°C, air-saturated, proposed suicide substrate

Compound | Km [1] [mM] | IC50 [2] [mM]
N[C@@H](Cc1ccc(O)c(O)c1)C(=O)O [L-Dopa] | 3.92 | –
OC[C@H]1O[C@H](Oc2ccc(O)cc2)[C@H](O)[C@@H](O)[C@@H]1O [α-arbutin] | – | 4.5
